In patent US20220033397A1, “PHARMACEUTICAL COMPOUNDS AND THEIR USE AS INHIBITORS OF UBIQUITIN SPECIFIC PROTEASE 19 (USP19)” (ALMAC DISCOVERY LIMITED, priority 2018, published 2022):
pIC50: −log10 of the molar value.

The compounds below were run against T1, Full-length USP19 (Homo sapiens, UniProt O94966) (assay: USP19 fluorescence polarisation (FP) homogeneous assay with Ubiquitin-Lys-TAMRA substrate). Conditions: 2.5 nM USP19, 30 min pre-incubation, average of at least two duplicate experiments.
T1 construct: Full-length USP19 was purchased from Boston Biochem (E-576); purchased Boston Biochem E-576
T1 sequence (O94966 1-1318): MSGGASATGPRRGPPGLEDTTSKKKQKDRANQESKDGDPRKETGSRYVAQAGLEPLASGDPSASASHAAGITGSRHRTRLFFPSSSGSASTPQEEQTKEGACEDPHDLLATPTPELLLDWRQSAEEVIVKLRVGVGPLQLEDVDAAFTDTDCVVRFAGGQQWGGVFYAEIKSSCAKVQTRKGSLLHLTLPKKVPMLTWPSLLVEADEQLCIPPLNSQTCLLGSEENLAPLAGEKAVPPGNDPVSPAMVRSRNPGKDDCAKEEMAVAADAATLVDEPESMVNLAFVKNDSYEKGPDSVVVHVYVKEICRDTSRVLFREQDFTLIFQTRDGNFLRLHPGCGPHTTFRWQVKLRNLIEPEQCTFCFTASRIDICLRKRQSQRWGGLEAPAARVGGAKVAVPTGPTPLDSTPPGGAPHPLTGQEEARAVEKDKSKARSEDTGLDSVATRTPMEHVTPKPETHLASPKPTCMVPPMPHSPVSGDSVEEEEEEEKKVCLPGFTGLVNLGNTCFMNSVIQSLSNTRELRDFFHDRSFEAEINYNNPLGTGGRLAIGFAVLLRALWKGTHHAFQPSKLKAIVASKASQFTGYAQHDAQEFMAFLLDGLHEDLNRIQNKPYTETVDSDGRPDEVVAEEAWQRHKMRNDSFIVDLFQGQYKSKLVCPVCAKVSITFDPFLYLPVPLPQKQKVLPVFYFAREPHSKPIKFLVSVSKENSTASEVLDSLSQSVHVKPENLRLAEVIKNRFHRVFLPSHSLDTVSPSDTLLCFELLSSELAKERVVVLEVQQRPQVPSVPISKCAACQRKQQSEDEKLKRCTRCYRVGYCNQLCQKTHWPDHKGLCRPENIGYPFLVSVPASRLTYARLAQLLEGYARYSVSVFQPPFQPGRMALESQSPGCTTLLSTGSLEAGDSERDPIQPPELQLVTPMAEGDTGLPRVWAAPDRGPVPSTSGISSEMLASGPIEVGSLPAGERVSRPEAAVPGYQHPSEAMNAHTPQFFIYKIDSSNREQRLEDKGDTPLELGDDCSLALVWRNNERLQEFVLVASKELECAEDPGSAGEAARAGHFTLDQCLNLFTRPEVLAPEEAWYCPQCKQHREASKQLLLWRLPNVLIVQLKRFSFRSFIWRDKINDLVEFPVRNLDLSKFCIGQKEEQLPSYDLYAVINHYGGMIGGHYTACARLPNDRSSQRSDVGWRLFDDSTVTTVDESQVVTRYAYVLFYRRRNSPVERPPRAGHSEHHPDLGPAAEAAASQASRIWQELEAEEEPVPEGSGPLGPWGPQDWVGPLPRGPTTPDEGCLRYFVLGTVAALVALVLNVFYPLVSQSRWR
Type: biochemical
Method in brief: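 Full-length USP19 preincubated 30 min at RT with inhibitor (200 μM to 2 μM series, 8–18 points) before adding 500 nM Ubiquitin-Lys-TAMRA substrate.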

Q: With `O=C(NCC(F)(F)F)N1CCC(O)(Cn2cnc(-c3ccccc3)cc2=O)C2(CCCC2)C1` (stereo not drawn) [Example 196, 10-Hydroxy-10-((6-oxo-4-phenylpyrimidin-1(6H)-yl)methyl)-N-(2,2,2-trifluoroethyl)-7-azaspiro[4.5]decane-7-carboxamide] as the compound, how does the pIC50 read?
A: 4.30 to 5.30

Q: With `CN(C)C(=O)C1CN(C[C@]2(O)CCN(C(=O)[C@H](CO)CC3CCCCC3)CC2(C)C)C(=O)CC1c1ccccc1` (stereo partly drawn) [Example 26, 1-(((S)-1-((S)-3-Cyclohexyl-2-(hydroxymethyl)propanoyl)-4-hydroxy-3,3-dimethylpiperidin-4-yl)methyl)-N,N-dimethyl-6-oxo-4-phenylpiperidine-3-carboxamide] as the compound, how does the pIC50 read?
A: > 6.30

Q: With `O=C(NCc1cccc(F)c1)N1CC[C@@](O)(Cn2cnc(-c3ccccc3)cc2=O)C2(CCCC2)C1` [Example 216, (S)—N-(3-Fluorobenzyl)-10-hydroxy-10-((6-oxo-4-phenylpyrimidin-1(6H)-yl)methyl)-7-azaspiro[4.5]decane-7-carboxamide] as the compound, how does the pIC50 read?
A: > 6.30

Q: `N=S1(=O)CCN(C(=O)N2CC[C@@](O)(Cn3cnc(-c4ccccc4)cc3=O)C3(CCCC3)C2)[C@H](c2cc(F)ccc2F)C1` (mixture of isomers) [Example 395] was tested. Which pIC50 did it give?
A: > 6.30

Q: `C[C@H](CC(F)(F)F)C(=O)N1CCC(O)(Cn2ccncc2=O)C2(CCCC2)C1` (stereo partly drawn) [Example 5, 1-((10-Hydroxy-7-((R)-4,4,4-trifluoro-2-methylbutanoyl)-7-azaspiro[4.5]decan-10-yl)methyl)pyrazin-2(1H)-one] was tested. Which pIC50 did it give?
A: 4.30 to 5.30

Q: How did the pIC50 turn out when `O=C(N1CC[C@@](O)(Cn2cnc(-c3cccs3)cc2=O)C2(CCCC2)C1)N1CCNC[C@H]1c1ccccc1` [Example 343, 3-(((S)-10-Hydroxy-7-((R)-2-phenylpiperazine-1-carbonyl)-7-azaspiro[4.5]decan-10-yl)methyl)-6-(thiophen-2-yl)pyri-midin-4(3H)-one] was run?
A: > 6.30

Q: With `O=C(N1CC[C@@](O)(Cn2cnc(-c3ccccc3)cc2=O)C2(CCCC2)C1)N1CCS(=O)(=O)CC1c1ccccc1` (stereo partly drawn) [Example 335, (S)-3-((7-(1,1-Dioxido-3-phenylthiomorpholine-4-carbonyl)-10-hydroxy-7-azaspiro[4.5]decan-10-yl)methyl)-6-phenylpyrimidin-4(3H)-one] as the compound, how does the pIC50 read?
A: > 6.30

Q: With `O=C(N1CC[C@@](O)(Cn2cnc(-c3cccc(F)c3F)cc2=O)C2(CCCC2)C1)N1CCNC[C@H]1c1ccccc1` [Example 385, 6-(2,3-Difluoro-phenyl)-3-(((S)-10-hydroxy-7-((R)-2-phenylpiperazine-1-carbonyl)-7-aza-spiro[4.5]decan-10-yl)methyl)pyrimidin-4(3H)-one] as the compound, how does the pIC50 read?
A: > 6.30

Q: `O=C(N1CC[C@@](O)(Cn2cnc(-c3ccc(F)cc3)cc2=O)C2(CCCC2)C1)N1CCNC[C@H]1c1ccccc1` [Example 316, 6-(4-Fluorophenyl)-3-(((S)-10-hydroxy-7-((R)-2-phenylpiperazine-1-carbonyl)-7-azaspiro[4.5]decan-10-yl)methyl)pyrimidin-4(3H)-one] was tested. Which pIC50 did it give?
A: > 6.30

Q: How did the pIC50 turn out when `C[C@H](CC1CCCCC1)C(=O)N1CCC(O)(Cn2cc(-c3ccncc3)ncc2=O)C(C)(C)C1` (stereo partly drawn) [Example 14, 1-((1-((R)-3-Cyclohexyl-2-methylpropanoyl)-4-hydroxy-3,3-dimethylpiperidin-4-yl)methyl)-5-(pyridin-4-yl)pyrazin-2(1H)-one] was run?
A: 5.30 to 6.30

Q: `COc1cc2ccn(CC3(O)CCN(C(=O)[C@H](C)CC(F)(F)F)CC34CCCC4)c(=O)c2cc1OC` (stereo partly drawn) [Example 140, 2-((10-Hydroxy-7-((R)-4,4,4-trifluoro-2-methylbutanoyl)-7-azaspiro[4.5]decan-10-yl)methyl)-6,7-dimethoxyisoquinolin-1(2H)-one] was tested. Which pIC50 did it give?
A: 3.60 to 4.30

Q: With `Cn1cc(-c2cc(=O)n(C[C@]3(O)CCN(C(=O)N4CCNC[C@H]4c4ccccc4)CC34CCCC4)cn2)cn1` [Example 291, 3-(((S)-10-Hydroxy-7-((R)-2-phenylpiperazine-1-carbonyl)-7-azaspiro[4.5]decan-10-yl)methyl)-6-(1-methyl-1H-pyrazol-4-yl)pyrimidin-4(3H)-one] as the compound, how does the pIC50 read?
A: > 6.30

Q: How did the pIC50 turn out when `CN(C)c1cc(=O)n(C[C@]2(O)CCN(C(=O)N3CCOC[C@H]3c3ccccc3)CC23CCCC3)cn1` [Example 226, 6-(Dimethylamino)-3-(((S)-10-hydroxy-7-((R)-3-phenylmorpholine-4-carbonyl)-7-azaspiro[4.5]decan-10-yl)methyl)pyrimidin-4(3H)-one] was run?
A: > 6.30

Q: `C[S+]([O-])c1cn(CC2(O)CCN(C(=O)N3CCNC[C@H]3c3ccccc3)CC23CCCC3)c(=O)cc1-c1ccccc1` (stereo partly drawn) [Example 187, 1-((10-Hydroxy-7-((R)-2-phenylpiperazine-1-carbonyl)-7-azaspiro[4.5]decan-10-yl)methyl)-5-(methylsulfinyl)-4-phenylpyridin-2(1H)-one] was tested. Which pIC50 did it give?
A: > 6.30

Q: `Cc1cccc(-c2cc(=O)n(C[C@]3(O)CCN(C(=O)N4CCNC[C@H]4c4cc(F)ccc4F)CC34CCCC4)cn2)c1` [Example 386, 3-(((S)-7-((R)-2-(2,5-Difluorophenyl)piper-azine-1-carbonyl)-10-hydroxy-7-azaspiro[4.5]decan-10-yl)methyl)-6-(m-tolyl)pyrimidin-4(3H)-one] was tested. Which pIC50 did it give?
A: > 6.30

Q: How did the pIC50 turn out when `C[C@H](CC(F)(F)F)C(=O)N1CCC(O)(CN2CCN(C(=O)c3ccccc3)CC2=O)C2(CCCC2)C1` (stereo partly drawn) [Example 108, 4-Benzoyl-1-((10-hydroxy-7-((R)-4,4,4-trifluoro-2-methylbutanoyl)-7-azaspiro[4.5]decan-10-yl)methyl)Piperazin-2-one] was run?
A: 4.30 to 5.30

Q: `O=C(NCc1ccc2c(c1)OCO2)N1CC[C@@](O)(Cn2cnc(-c3ccccc3)cc2=O)C2(CCCC2)C1` [Example 217, (S)—N-(Benzo[d][1,3]dioxol-5-ylmethyl)-10-hydroxy-10-((6-oxo-4-phenylpyrimidin-1(6H)-yl)methyl)-7-azaspiro[4.5]decane-7-carboxamide] was tested. Which pIC50 did it give?
A: 4.30 to 5.30

Q: With `C[C@H](CC1CCCCC1)C(=O)N1CCC(O)(Cn2cc(Cl)ncc2=O)C2(CCCC2)C1` (stereo partly drawn) [Example 6, 5-Chloro-1-((7-((R)-3-cyclohexyl-2-methylpropanoyl)-10-hydroxy-7-azaspiro[4.5]decan-10-yl)methyl)pyrazin-2(1H)-one] as the compound, how does the pIC50 read?
A: > 6.30

Q: With `CN(Cc1ccco1)C(=O)N1CCC(O)(Cn2cnc(-c3ccccc3)cc2=O)C2(CCCC2)C1` (stereo not drawn) [Example 242, N-(Furan-2-ylmethyl)-10-hydroxy-N-methyl-10-((6-oxo-4-phenylpyrimidin-1(6H)-yl)methyl)-7-azaspiro[4.5]decane-7-carboxamide] as the compound, how does the pIC50 read?
A: 3.60 to 4.30

Q: `CC1CN(CC2(O)CCN(C(=O)[C@H](C)CC(F)(F)F)CC23CCCC3)C(=O)CO1` (stereo partly drawn) [Example 97, 4-((10-Hydroxy-7-((R)-4,4,4-trifluoro-2-methylbutanoyl)-7-azaspiro[4.5]decan-10-yl)methyl)-6-methylmorpholin-3-one] was tested. Which pIC50 did it give?
A: 3.60 to 4.30

Q: With `O=C(N1CC[C@@](O)(Cn2cnc(N3CCC(F)CC3)cc2=O)C2(CCCC2)C1)N1CCNC[C@H]1c1ccccc1` [Example 361, 6-(4-Fluoropiperidin-1-yl)-3-(((S)-10-hydroxy-7-((R)-2-phenylpiperazine-1-carbonyl)-7-aza-spiro[4.5]decan-10-yl)methyl)pyrimidin-4(3H)-one] as the compound, how does the pIC50 read?
A: > 6.30

Q: With `C[C@H](CC1CCC1)C(=O)N1CCC(O)(Cn2ccncc2=O)C2(CCCC2)C1` (stereo partly drawn) [Example 4, 1-((7-((R)-3-Cyclobutyl-2-methylpropanoyl)-10-hydroxy-7-azaspiro[4.5]decan-10-yl)methyl) pyrazin-2(1H)-one] as the compound, how does the pIC50 read?
A: 5.30 to 6.30

Q: `CN(CC1CC(F)C1)C(=O)N1CCC(O)(Cn2cnc(-c3ccccc3)cc2=O)C2(CCCC2)C1` (stereo not drawn) [Example 239, N-((3-Fluorocyclobutyl)methyl)-10-hydroxy-N-methyl-10-((6-oxo-4-phenylpyrimidin-1(6H)-yl)methyl)-7-azaspiro[4.5]decane-7-carboxamide] was tested. Which pIC50 did it give?
A: 4.30 to 5.30

Q: How did the pIC50 turn out when `COc1cc2ccn(CC3(O)CCN(C(=O)[C@H](C)CC4CCCCC4)CC34CCCC4)c(=O)c2cc1OC` (stereo partly drawn) [Example 146, 2-((7-((R)-3-Cyclohexyl-2-methylpropanoyl)-10-hydroxy-7-azaspiro[4.5]decan-10-yl)methyl)-6,7-dimethoxyisoquinolin-1(2H)-one] was run?
A: 5.30 to 6.30
